Measured values published in patent EP0565593B1, “REDUCING PESTICIDAL INTERACTIONS IN CROPS” (priority 1990, dated 1992).
Several values for one entry are separate records, joined by “and”; a condition that tells them apart may be missing. Equal values may be shown once. Read-outs that look alike come from different tables or passages of the source.

Legend:
[1] = tested on: Giant foxtail (GIFT); assay: whole plant or invertebrate; type: in vivo; settings: for inhibition at 140 g/ha / inhibition at 20 g/ha: Setaria faberi, iv; for inhibition at 20 g/ha: XRD-498 0.02 Kg/Ha alone
[2] = tested on: Velvetleaf (VELE); assay: whole plant or invertebrate; type: in vivo, Abutilon theophrasti; settings: for inhibition at 140 g/ha / inhibition at 20 g/ha: Abutilon theophrasti, iv; for inhibition at 20 g/ha: XRD-498 0.02 Kg/Ha alone
[3] = tested on: SJCA; assay: Greenhouse test Procedure IV: herbicide, biocide and antidote PPI, weed SJCA (Examples 53-55; Tables 52-54); type: in vivo; settings: Herbicide No. 21 0.14 Kg/Ha, all PPI
Excerpt: The test in this example paralleled that in Example 51, except the procedure was according to Procedure IV above and the herbicides used were No. 1 (MON-12000); No. 21 (XRD-498) and, again, No. 18 (PURSUIT); the biocide was, again, MOCAP®. Observations were taken thirteen (13) days after PPI treatment with biocide and antidote.
This test was identical to that in Example 52, except for use of a different biocide, DIAZINON (Biocide No. 5, a nematicide and soil insecticide).
This test was also identical to that in the preceding two examples, except that the biocide was malathion (No. 7, an insecticide).
This test was identical to the preceding ones, except the biocide was DPX-43898 (No. 6, active ingredient in FORTRESS® insecticide, a soil insecticide). Also, the observation time was fourteen (14) days after PPI initiation.

[4] = tested on: Corn
[5] = tested on: Corn; assay: whole plant or invertebrate; settings: Zea mays, iv; for inhibition at 20 g/ha: read-out: % Inhibition Corn, XRD-498 0.02 Kg/Ha alone
[6] = Herb. […], PPI, 13 days after planting
[7] = Herbicide No. 21 0.0175 Kg/Ha PPI alone, Table 23
[8] = Herbicide No. 21 0.0175 Kg/Ha PPI alone, Table 24
[9] = Herbicide No. 21 0.0175 Kg/Ha PPI alone, Table 25
[10] = Herbicide No. 21 0.0175 Kg/Ha PPI alone, Table 26
[11] = 312 h, Herb. No. 21 0.14 kg/Ha alone, PPI, 13 days after planting
[12] = 312 h, Table 51, Herbicide No. 21 0.14 Kg/Ha, where applied Biocide No. 8 8.96 kg/Ha and antidote 4.48 Kg/Ha, all PPI, observed 13 days after treatment
[13] = 312 h, PPI, 13 days after PPI (Table 31)
[14] = 336 h, PPI, 14 days after PPI (Table 34)
[15] = XRD-498 0.02 Kg/Ha PPI alone, 13 days after treatment
[16] = […], PPI, 13 days after PPI (Table 31)
[17] = […], PPI, 14 days after PPI (Table 34)

`Cc1ccn2nc(S(=O)(=O)Nc3c(F)cccc3F)nc2n1` [Herbicide No. 21, 5-Methyl-N-(2,6-difluorophenyl)-1,2,4-triazolo[1,5-a]pyrimidine-2-sulfonamide, reference compound] was tested, and the “% Inhibition GIFT” value [1, 6] was 95%, the “% Inhibition GIFT” value [1, 7] was 0% and the “% Inhibition GIFT” value [1, 8] was 0%. For the same molecule, the “% Inhibition GIFT” value [1, 9] was 0%, the “% Inhibition GIFT” value [1, 10] was 0% and the inhibition at 140 g/ha [1, 11] was 40%. The inhibition at 140 g/ha [1, 12] was 70%, the inhibition at 20 g/ha [1, 13] was 30% and the inhibition at 20 g/ha [1, 14] was 35%. For the same molecule, the “% Inhibition GIFT” value [1, 15] was 25%, the “% Inhibition GIFT” value [1, 16] was 75% and the “% Inhibition GIFT” value [1, 17] was 65%. The “% Inhibition GIFT” value ([1]; in vivo) was 60% and 75% and 90%, the inhibition at 140 g/ha [2, 11] was 75% and the inhibition at 140 g/ha [2, 12] was 80%. For the same molecule, the inhibition at 140 g/ha ([2]; 312 h, Table 52, Herbicide No. 21 0.14 Kg/Ha, where applied Biocide No. 5 8.96 kg/Ha and antidote 4.48 Kg/Ha, all PPI, observed 13 days after treatment) was 80%, the inhibition at 140 g/ha ([2]; 312 h, Table 53, Herbicide No. 21 0.14 Kg/Ha, where applied Biocide No. 7 8.96 kg/Ha and antidote 4.48 Kg/Ha, all PPI, observed 13 days after treatment) was 85% and the inhibition at 20 g/ha [2, 13] was 80%. The inhibition at 140 g/ha ([2]; 336 h, Table 54, Herbicide No. 21 0.14 Kg/Ha, where applied Biocide No. 6 8.96 kg/Ha and antidote 4.48 Kg/Ha, all PPI, observed 14 days after PPI initiation) was 85%, the inhibition at 20 g/ha [2, 14] was 80% and the “% Inhibition VELE” value [2, 7] was 60%. For the same molecule, the “% Inhibition VELE” value [2, 8] was 45%, the “% Inhibition VELE” value [2, 9] was 60% and the “% Inhibition VELE” value [2, 10] was 50%. The “% Inhibition VELE” value [2, 15] was 90%, the “% Inhibition VELE” value [2, 17] was 90% and the “% Inhibition VELE” value ([2]; in vivo) was 70% and 75%. The “% Inhibition VELE” value ([2]; in vivo, listed as XRD-498) was 90%, the inhibition at 140 g/ha ([3]; 312 h, Table 52, where applied Biocide No. 5 8.96 kg/Ha and antidote 4.48 Kg/Ha, observed 13 days after treatment) was 70% and the inhibition at 140 g/ha ([3]; 312 h, Table 53, where applied Biocide No. 7 8.96 kg/Ha and antidote 4.48 Kg/Ha, observed 13 days after treatment) was 75%. For the same molecule, the inhibition at 140 g/ha ([3]; 336 h, Table 54, where applied Biocide No. 6 8.96 kg/Ha and antidote 4.48 Kg/Ha, observed 14 days after PPI initiation) was 60%, the “% Inhibition Corn” value [4, 6] was 75% and the “% Inhibition Corn” value [4, 7] was 0%. For the same molecule, the “% Inhibition Corn” value [4, 8] was 0%, the “% Inhibition Corn” value [4, 9] was 0% and the “% Inhibition Corn” value [4, 10] was 5%. For the same molecule, the “% Inhibition Corn” value [4, 15] was 15%, the corn injury ([4]; XRD-498 with OP insecticides, Examples 24-27) was 30-55% and the corn injury ([4]; XRD-498 without insecticide, Examples 24-27) was 0-5%. For the same molecule, the “% Inhibition Corn” value [4, 16] was 70%, the “% Inhibition Corn” value [4, 17] was 75% and the corn injury ([4]; herbicide used in conjunction with COUNTER, Tables 29-37) was 55-70%. For the same molecule, the corn injury ([4]; herbicide without COUNTER, Tables 29-37) was 0-5%, the “% Inhibition Corn” value ([4]; in vivo) was 50% and 30% and 55% and the “% Inhibition Corn” value ([4]; in vivo, listed as XRD-498) was 75%. For the same molecule, the inhibition at 140 g/ha ([5]; 312 h, read-out: % Inhibition Corn, Herb. No. 21 0.14 kg/Ha alone, PPI, 13 days after planting) was 5%, the inhibition at 140 g/ha ([5]; 312 h, read-out: % Inhibition Corn, Table 51, Herbicide No. 21 0.14 Kg/Ha, where applied Biocide No. 8 8.96 kg/Ha and antidote 4.48 Kg/Ha, all PPI, observed 13 days after treatment) was 10% and the inhibition at 140 g/ha ([5]; 312 h, read-out: % Inhibition Corn, Table 52, Herbicide No. 21 0.14 Kg/Ha, where applied Biocide No. 5 8.96 kg/Ha and antidote 4.48 Kg/Ha, all PPI, observed 13 days after treatment) was 5%. For the same molecule, the inhibition at 140 g/ha ([5]; 312 h, read-out: % Inhibition Corn, Table 53, Herbicide No. 21 0.14 Kg/Ha, where applied Biocide No. 7 8.96 kg/Ha and antidote 4.48 Kg/Ha, all PPI, observed 13 days after treatment) was 10%, the inhibition at 20 g/ha [5, 13] was 5% and the inhibition at 140 g/ha ([5]; 336 h, read-out: % Inhibition Corn, Table 54, Herbicide No. 21 0.14 Kg/Ha, where applied Biocide No. 6 8.96 kg/Ha and antidote 4.48 Kg/Ha, all PPI, observed 14 days after PPI initiation) was 10%. The inhibition at 20 g/ha [5, 14] was 20%.
